System: 855422-203-R-J1-PDC complex spheroid viability
Experiment: Anticancer human tumor 855422-203-R-J1-PDC patient-derived bladder carcinoma cell line growth inhibition [POLQ]
Conditions: for IC50: curve of first compound; for viability, T/C: stronger effect = lower value; active means viability on the fitted dose curve at most 10% of control; inactive means the rest
Procedure: Multicellular complex tumor spheroid response to Polymerase (POL) inhibitors (novobiocin, ART-558, RP6685) in combination with a variety of drugs and investigational agents in selected tumor cell lines
The POL inhibitors (novobiocin, ART-558, and RP6685) were evaluated both individually and in combination with standard of care and investigational anticancer small molecules within a complex spheroid model of solid tumors. . Complex spheroids include a stromal component modeled by human endothelial cells (HUVEC) and fibroblasts modeled by human mesenchymal stem cells (MSCs). The concentration ranges selected for each drug and investigational agent were based upon clinically achievable concentrations if the clinical Cmax of the agent was known.
Compounds. The drugs and investigational agents: novobiocin (NSC847541), ART-558 (NSC835418), RP-6685 (NSC848927), peposertib (NSC802822), ceralasertib (NSC780249), elimusertib (NSC800525), camonsertib (NSC841442), AZD-1390 (NSC803789), olaparib (NSC753686), talazoparib (NSC767125), rucaparib (NSC756644), sotorasib (NSC818433), MRTX-1133 (NSC836407), SN-38 (NSC673596), topotecan (NSC609699), epotoside (NSC141540), doxorubicin (NSC123127), gemcitabine (NSC613327), 5-fluorouracil (NSC19893), paclitaxel (NSC125973), vemurafenib (NSC761431), MSA-2 (NSC828583), SN-011 (NSC837082), adavosertib (NSC754352), prexasertib (NSC758257), carboplatin (NSC241240) and oxaliplatin (NSC266046), were obtained from the National Cancer Institute (NCI) Developmental Therapeutics Program Chemical Repository (21). The FDA-approved anticancer drug set is available from the Developmental Therapeutics Program at https://dtp.cancer.gov/organization/dscb/obtaining/. […] The stock solutions were prepared in dimethyl sulfoxide (DMSO, Sigma-Aldrich, St. Louis, MO, cat. D2650), except for the platinum compounds which were prepared in saline (Quality Biological, Gaithersburg, MD, cat. 114-055-101), at 800-fold the tested concentration and stored at -70 degrees C prior to their use. All drugs and investigational agents were tested over a range starting from a high concentration at or near the clinical Cmax and decreasing in half-log increments. If the clinical Cmax for an agent had not been determined, the highest concentration tested was 10 microM, except for SN-38, which was tested at a high concentration of 1 microM.
Cell Culture. All cells were maintained in an incubator at 37 degrees C and 5% CO2 with 95% humidity. The PDC lines were cultured according to standard operating procedures established by the NCI PDMR (https://pdmr.cancer.gov). Table 3 of the manuscript, lists the cell lines along with the number of the three cell types plated to form the mct-spheroids and media for tumor cell growth. After thawing, all PDC lines, except 997537-175-T-J1-PDC and 415267-285-R-J2-PDC, were cultured in Matrigel-coated flasks prepared with a working solution of 1X Ham's F-12 nutrient mix, without supplementation (Thermo Fisher Scientific, cat. 11765054), 100 U/mL penicillin-streptomycin (Thermo Fisher Scientific, cat. 15140122), and 2.5% Matrigel (Corning Inc., Corning, NY, cat. 354248) for the first three passages. The two PDC lines 997537-175-T-J1-PDC and 415267-285-R-J2-PDC were cultured on uncoated flasks. The 857933-349-R-J2-PDC line was cultured in 6C/Colon 1B media containing advanced DMEM/F-12 (Thermo Fisher Scientific, cat. 12634028), 10 mM HEPES (Thermo Fisher Scientific, cat. 15630080), 1X GlutaMAX supplement (Thermo Fisher Scientific, cat. 35050061), 0.1 mg/mL primocin (InvivoGen, San Diego, CA, cat. ant-pm-2), 10% defined fetal bovine serum, heat inactivated (HyClone Laboratories Inc., Logan, UT, cat. SH30070.03HI), 50% L-WRN conditioned media (ATCC, cat. CRL-3276), 1.25 mM N-Acetyl-L-cysteine (Sigma-Aldrich, cat. A9165), 10 mM nicotinamide (Sigma-Aldrich, cat. N0636), 1X B-27 supplement (Thermo Fisher Scientific, cat. 17504044), 1X N-2 supplement (Thermo Fisher Scientific, cat. […]

[1] = second compound 0.0316 µM, first compound 0.0316 µM
[2] = second compound 0.0316 µM, first compound 0.1 µM
[3] = second compound 0.0316 µM, first compound 0.316 µM
[4] = second compound 0.0316 µM, first compound 1 µM
[5] = second compound 0.0316 µM, first compound 3.16 µM
[6] = second compound 0.0316 µM, first compound 10 µM
[7] = second compound 0.1 µM, first compound 0.0316 µM
[8] = second compound 0.1 µM, first compound 0.1 µM
[9] = second compound 0.1 µM, first compound 0.316 µM
[10] = second compound 0.1 µM, first compound 1 µM
[11] = second compound 0.1 µM, first compound 3.16 µM
[12] = second compound 0.1 µM, first compound 10 µM
[13] = second compound 0.316 µM, first compound 0.0316 µM
[14] = second compound 0.316 µM, first compound 0.1 µM
[15] = second compound 0.316 µM, first compound 0.316 µM
[16] = second compound 0.316 µM, first compound 1 µM
[17] = second compound 0.316 µM, first compound 3.16 µM
[18] = second compound 0.316 µM, first compound 10 µM
[19] = second compound 1 µM, first compound 0.0316 µM
[20] = second compound 1 µM, first compound 0.1 µM
[21] = second compound 1 µM, first compound 0.316 µM
[22] = second compound 1 µM, first compound 1 µM
[23] = second compound 1 µM, first compound 3.16 µM
[24] = second compound 1 µM, first compound 10 µM
[25] = second compound 3.16 µM, first compound 0.0316 µM
[26] = second compound 3.16 µM, first compound 0.1 µM
[27] = second compound 3.16 µM, first compound 0.316 µM
[28] = second compound 3.16 µM, first compound 1 µM
[29] = second compound 3.16 µM, first compound 3.16 µM
[30] = second compound 3.16 µM, first compound 10 µM
[31] = second compound 10 µM, first compound 0.0316 µM
[32] = second compound 10 µM, first compound 0.1 µM
[33] = second compound 10 µM, first compound 0.316 µM
[34] = second compound 10 µM, first compound 1 µM
[35] = second compound 10 µM, first compound 3.16 µM
[36] = second compound 10 µM, first compound 10 µM
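Further: spheroids exposed to compounds for seven days before readout.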

COc1cccc2c1C(=O)c1c(O)c3c(c(O)c1C2=O)CC(O)(C(=O)CO)CC3OC1CC(N)C(O)C(C)O1 (centres undefined) + Cc1cccc(N(C)C(=O)C2C(O)CCN2c2nc(C)cc(C(F)(F)F)c2C#N)c1
inactive: viability, T/C [1] 16.1% | viability, T/C [7] 15.8% | viability, T/C [13] 16.4% | viability, T/C [19] 14.4% | viability, T/C [25] 14.1% | viability, T/C [31] 13.5%
active: viability, T/C [2] 10.2% | viability, T/C [3] 2.55% | viability, T/C [4] 0.3% | viability, T/C [5] 0.66% | viability, T/C [6] 2.13% | viability, T/C [8] 10.1% | viability, T/C [9] 2.47% | viability, T/C [10] 0.26% | viability, T/C [11] 0.48% | viability, T/C [12] 2.11% | viability, T/C [14] 9.49% | viability, T/C [15] 3.59% | viability, T/C [16] 0.33% | viability, T/C [17] 0.43% | viability, T/C [18] 1.8% | viability, T/C [20] 9.02% | viability, T/C [21] 2.18% | viability, T/C [22] 0.24% | viability, T/C [23] 0.8% | viability, T/C [24] 1.14% | viability, T/C [26] 8.42% | viability, T/C [27] 2.03% | viability, T/C [28] 0.25% | viability, T/C [29] 0.6% | viability, T/C [30] 2.24% | viability, T/C [32] 9.55% | viability, T/C [33] 1.76% | viability, T/C [34] 0.25% | viability, T/C [35] 0.59% | viability, T/C [36] 1.9%
< 31.6 nM: IC50 (second compound 0.0316 µM) | IC50 (second compound 0.1 µM) | IC50 (second compound 0.316 µM) | IC50 (second compound 1 µM) | IC50 (second compound 3.16 µM) | IC50 (second compound 10 µM)

O=c1[nH]cc(F)c(=O)[nH]1 + Cc1cccc(N(C)C(=O)C2C(O)CCN2c2nc(C)cc(C(F)(F)F)c2C#N)c1
387 nM: IC50 (second compound 0.316 µM)
inactive: viability, T/C [1] 133% | viability, T/C [2] 96.3% | viability, T/C [3] 67.1% | viability, T/C [4] 36.8% | viability, T/C [5] 27.6% | viability, T/C [6] 25.7% | viability, T/C [7] 109% | viability, T/C [8] 128% | viability, T/C [9] 54.8% | viability, T/C [10] 33.2% | viability, T/C [11] 26.3% | viability, T/C [12] 24.2% | viability, T/C [13] 115% | viability, T/C [14] 118% | viability, T/C [15] 54.6% | viability, T/C [16] 34.5% | viability, T/C [17] 27.4% | viability, T/C [18] 23.1% | viability, T/C [19] 112% | viability, T/C [20] 107% | viability, T/C [21] 61.1% | viability, T/C [22] 33.7% | viability, T/C [23] 26.6% | viability, T/C [24] 24.1% | viability, T/C [25] 109% | viability, T/C [26] 99.5% | viability, T/C [27] 62.6% | viability, T/C [28] 35.2% | viability, T/C [29] 29.1% | viability, T/C [30] 27% | viability, T/C [31] 109% | viability, T/C [32] 114% | viability, T/C [33] 65.2% | viability, T/C [34] 40.1% | viability, T/C [35] 32.6% | viability, T/C [36] 26.6%
496 nM: IC50 (second compound 1 µM)
605 nM: IC50 (second compound 0.0316 µM)
389 nM: IC50 (second compound 0.1 µM)
554 nM: IC50 (second compound 10 µM)
537 nM: IC50 (second compound 3.16 µM)

From PubChem BioAssay AID1963838 (Molecular Pharmacology Branch, DTP, NCI, 2024)
